One data set concerns rhinovirus A1B. The data set can be described thus: Antiviral activity against Human rhinovirus 1B infected in human HeLa cells assessed as reduction in virus-induced cytopathic effect after 2 days by SRB staining based microscopic method. In kind it is functional, organism-based. The note with it: Rhinovirus A, 48 h. (In general: Protection from cytopathic effect is a common read-out in antiviral testing.)

The nature of data set [1]: Selectivity index, ratio of CC50 for human HeLa cells to IC50 for Human rhinovirus 1B infected in human HeLa cells. In kind it is toxicity, cell-based. The note with it: read-out: Ratio CC50/IC50.
Data set [2] can be described thus: Cytotoxicity against human HeLa cells assessed as growth inhibition after 2 days by SRB assay. In kind it is cell-based. For orientation: In SRB staining, fixed cells bind dye roughly in proportion to their protein.
The test system of another data set is Coxsackievirus B3. In words: Antiviral activity against Coxsackievirus B3 infected in African green monkey Vero cells assessed as reduction in virus-induced cytopathic effect after 2 days by SRB staining based microscopic method. In kind it is functional, organism-based. The note with it: Enterovirus B, 48 h.
Data set [3] is described as follows: Cytotoxicity against African green monkey Vero cells assessed as growth inhibition after 2 days by SRB assay. It is filed as cell-based. The note with it: chlorocebus sabaeus.
Data set [4] in a line: Selectivity index, ratio of CC50 for African green monkey Vero cells to IC50 for Coxsackievirus B3 infected in African green monkey Vero cells. In kind it is toxicity. The note with it: read-out: Ratio CC50/IC50.

Where only a bound is given, the exact number is not on record here.

Data on six compounds can be found in ChEMBL document CHEMBL4330149, “Lignan Dimers from Forsythia viridissima Roots and Their Antiviral Effects” (J Nat Prod, 2019).

One may read the IC50 as the midpoint of a concentration-inhibition curve. A word on the CC50: it is the concentration that lowers cell viability or growth by half.

With `COc1ccc(C[C@H]2COC(=O)[C@@H]2Cc2ccc(Oc3cc(C[C@H]4C(=O)OC[C@@H]4Cc4ccc(OC)c(OC)c4)cc(OC)c3O)c(OC)c2)cc1OC`, the IC50 in the data set on rhinovirus A1B stood at 13 µM. Moreover, in data set [1], the selectivity ratio was more than 3.8. In addition, the CC50 at 48 h in data set [2] is more than 50 µM.

As to `COc1cc(C[C@H]2COC(=O)[C@@H]2Cc2cc(OC)c(O)c(-c3cc(C[C@H]4C(=O)OC[C@@H]4Cc4ccc(OC)c(OC)c4)cc(OC)c3O)c2)ccc1O`, the IC50 in the data set with rhinovirus A1B came out at 47.5 µM. Also, in data set [1], the selectivity ratio is more than 1.1. Moreover, in data set [2], the CC50 at 48 h was more than 50 µM.

Consider `COc1cc(C[C@H]2C(=O)OC[C@@H]2Cc2cc(OC)c(O)c(-c3cc(C[C@H]4C(=O)OC[C@@H]4Cc4ccc(OC)c(OC)c4)cc(OC)c3O)c2)ccc1O`, for which the IC50 in the data set on rhinovirus A1B was 45.7 µM. Moreover, the selectivity ratio in data set [1] was more than 1.1. For the same compound, the CC50 at 48 h in data set [2] was more than 50 µM.

As to `COc1cc([C@@H](OC)[C@@H]2CO[C@H](c3ccc(O)c(OC)c3)[C@@H]2CO)ccc1O` (relative stereo), the IC50 with Coxsackievirus B3 stood at 15.4 µM. For the same compound, the CC50 at 48 h in data set [3] is more than 50 µM. Also, in data set [4], the selectivity ratio is more than 3.2.

With `COc1cc(C[C@H]2COC(=O)[C@@H]2Cc2ccc(O)c(OC)c2)ccc1O` [MATAIRESINOL], the IC50 in the data set with rhinovirus A1B worked out at 43.2 µM. The selectivity ratio in data set [1] was more than 1.2. Also, the CC50 at 48 h in data set [2] was more than 50 µM.

Take `CCOC(=O)/C=C/[C@H](C[C@@H]1CCNC1=O)NC(=O)[C@@H](CC(=O)[C@@H](NC(=O)c1cc(C)on1)C(C)C)Cc1ccc(F)cc1` [RUPINTRIVIR]: the half-inhibitory concentration (IC50) with Coxsackievirus B3 stood at 6.6 µM. For the same compound, the CC50 at 48 h in data set [3] and in data set [2] was more than 50 µM throughout. Further, in data set [4], the selectivity ratio was more than 7.6.
